Laboratory results taken from US20250319067A1, “Improved Pharmacokinetics of Tryptamine Prodrugs” (Reunion Neuroscience, Inc., priority 2023, published 2025).

What was measured:
dog hepatocytes = experiment: Hepatocyte intrinsic clearance, dog; assay type: in vitro ADME
Description: (§1) In human, rat, rabbit, dog and monkey hepatocytes, the metabolite profile of RE104 was qualitatively similar across these species with only minor differences.

rabbit hepatocytes = experiment: Hepatocyte intrinsic clearance, rabbit; assay type: in vitro ADME
Description: as §1

[1] = biological target: human recombinant 5-HT2B receptors (Homo sapiens, UniProt P41595); experiment: 5-HT2B agonist radioligand binding assay ([125I]DOI)
Chain of human recombinant 5-HT2B receptors (P41595 whole entry): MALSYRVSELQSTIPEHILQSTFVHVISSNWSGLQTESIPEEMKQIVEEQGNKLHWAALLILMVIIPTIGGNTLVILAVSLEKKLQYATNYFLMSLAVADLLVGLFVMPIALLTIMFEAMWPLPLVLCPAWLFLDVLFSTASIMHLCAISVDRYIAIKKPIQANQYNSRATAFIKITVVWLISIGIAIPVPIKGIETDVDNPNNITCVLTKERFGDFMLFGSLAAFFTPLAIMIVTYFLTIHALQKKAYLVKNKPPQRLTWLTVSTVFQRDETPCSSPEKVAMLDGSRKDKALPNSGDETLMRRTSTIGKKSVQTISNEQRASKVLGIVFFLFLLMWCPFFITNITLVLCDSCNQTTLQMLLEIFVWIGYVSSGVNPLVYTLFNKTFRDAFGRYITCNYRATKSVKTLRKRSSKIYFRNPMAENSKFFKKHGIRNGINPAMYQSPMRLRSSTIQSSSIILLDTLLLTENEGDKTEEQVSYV
Experimental: Increasing concentrations of RE104 were incubated with 0.2 nM [^125I]DOI in CHO cell cultures expressing human recombinant 5-HT2B receptors.
Radioligand concentration was measured by scintillation counting; compound binding was calculated as percent inhibition of the binding of [^125I]DOI. In agonist activity assays, test concentrations of RE104 were incubated with HEK-293 cells expressing human recombinant 5-HT2A receptors; IP1 production was detected using homogeneous time-resolved fluorescence. Activation was calculated as a percentage of the response to the positive control (10 μM 5-HT).
Inhibition constants were calculated by using the Cheng-Prusoff equation Ki=IC50/(1+L/KD), where L=radioligand concentration and KD=radioligand affinity for the receptor (determined with a Scatchard plot). In the functional activity assay test concentrations of RE104 were 10 nM, 30 nM, 100 nM, 300 nM, 1 μM, 3 μM, 10 μM, and 30 μM. EC50 and IC50 values were determined by nonlinear regression analysis of the concentration-response curves generated with mean replicate values using Hill equation curve fitting.

[2] = Non-GLP single dose, dose range study in rats (MTD); settings: rat, in vivo, sc
Experimental: Non-GLP single dose, dose range studies with RE104 HCl were performed in rats and dogs to explore toxicity and establish a maximum tolerated dose (MTD) by SC injection. The rat study explored dosing with two formulations, water for injection (WFI) at pH 3-4 and phosphate buffered saline (PBS) with a final formulation pH of 4.5-5. Single doses of 20 to 300 mg/kg formulated in WFI produced dose-dependent pharmacologically related systemic serotonergic clinical signs. Similarly, SC administration with doses of 25 to 225 mg/kg RE104 formulated in PBS caused clinical signs of SS around 1 hour with recovery by 24 hours.
Clinical signs were reversible by Recovery Day 13 (Study Day 14). Microscopic injection site pathology was seen following a single dose of 225 mg/kg. The MTD in the rat for RE104 in WFI was 150 mg/kg and in PBS was 75 mg/kg.

[3] = Prodrug cleavage in rat plasma; assay type: in vitro ADME; settings: 37° C.
Experimental: (§2) Mean values from 3 replicate assays are reported. See the Supplemental Methods for additional details.
(§3) Triplicate aliquots (50 μL) of each spiked plasma solution were immediately added to 200 μL of ice-cold methanol/acetonitrile solution (50:50 v/v) containing the internal standards to generate time zero samples. Spiked plasma solutions were incubated at 37° C. in an orbital shaker set to 75 rpm, and 50-μL samples were taken in triplicate after 30 minutes and 1, 2, and 4 hours of incubation. Each sample was immediately added to 200 μL ofice-cold methanol/acetonitrile solution containing the internal standard(s) to terminate the reaction. Samples were mixed by vortex and then stored at −80° C. until analysis.
(§4) Calibration standards were prepared in plasma for each species and analyzed in batches by LC-MS/MS. Sample batches consisted of 3 replicates of a system suitability standard (containing the analyte and internal standard), the appropriate calibration standards in ascending order including a blank sample without internal standard, a zero sample (with internal standard), and at least 6 nonzero standards and the assay samples, followed by the 3 replicates of the system suitability sample.

[4] = biological target: human recombinant 5-HT2A receptors (Homo sapiens, UniProt P28223); experiment: 5-HT2A cellular agonist effect assay (IP1, HTRF); assay type: cell-based; parameters: host or cells: HEK-293
Chain of human recombinant 5-HT2A receptors (P28223 whole entry): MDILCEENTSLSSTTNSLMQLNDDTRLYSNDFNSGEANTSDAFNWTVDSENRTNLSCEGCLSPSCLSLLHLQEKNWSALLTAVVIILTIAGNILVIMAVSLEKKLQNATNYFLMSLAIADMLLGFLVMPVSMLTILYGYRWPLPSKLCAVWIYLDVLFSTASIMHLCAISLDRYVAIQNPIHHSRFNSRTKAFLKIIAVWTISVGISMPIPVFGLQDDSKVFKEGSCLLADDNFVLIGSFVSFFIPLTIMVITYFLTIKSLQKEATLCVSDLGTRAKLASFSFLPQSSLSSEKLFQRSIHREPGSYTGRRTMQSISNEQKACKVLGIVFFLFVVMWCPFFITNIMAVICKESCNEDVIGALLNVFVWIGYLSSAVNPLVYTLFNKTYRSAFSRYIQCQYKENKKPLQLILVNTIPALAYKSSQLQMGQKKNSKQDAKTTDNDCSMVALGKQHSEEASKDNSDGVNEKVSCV
Experimental: Activation was calculated as a percentage of the response to the positive control (10 μM 5-HT).
EC50 and IC50 values were determined by nonlinear regression analysis of the concentration-response curves generated with mean replicate values using Hill equation curve fitting. For all receptor pharmacology assays, data were analyzed with software developed at Cerep (Hill software, Celle-Lévescault, France) and validated by comparison with data generated by the commercial software SigmaPlot® 4.0 for Windows®(01997 by SPSS Inc).

[5] = Rat plasma PK after IV, PO, SC RE104 or 4-OH-DiPT (Example 3); settings: 2 mg/kg RE104 IV, vs AUC0-- of equimolar IV 4-OH-DiPT
Experimental: The concentration of test compounds was determined in plasma by LC-MS/MS. […] Pharmacokinetic parameters for each analyte and route of administration were estimated from the plasma concentration-versus-time curves for each animal. Head-twitch response (HTR), also referred to as wet dog shakes, was assessed by observing rats for automatisms consisting of rapid and alternating head rotations (González-Maeso et al. and Halberstadt et al.); HTRs were manually counted using 10-minute intervals up to 2 hours after dosing and again at 3, 3.5, and 4 hours after dosing.
Pharmacokinetic parameters were calculated using Phoenix WinNonlin, version 6.3 or 8.2 (Certara, Princeton, NJ, USA).
For rat PK assessments, approximately 0.25 mL blood was serially collected at 8 time points over 6 hours (5, 15, 30, and 45 minutes, and 1, 2, 4, and 6 hours after dosing) via a surgically placed carotid artery catheter and immediately transferred to tubes containing K2EDTA on ice. For dog PK assessments, approximately 0.5 mL of blood was collected via superficial vein before dose and at 5 (for IV and SC injections only), 15, and 30 minutes and 1, 2, 4, 8, 16, 24, 48, and 72 hours post dose into tubes containing K2EDTA with 10 mM Dichlorvos as the anticoagulant and stabilizer, respectively. […]

[6] = Prodrug cleavage in mouse plasma; assay type: in vitro ADME; settings: 37° C.
Experimental: as §2, §3, §4

[7] = GLP 14-day extended single SC dose toxicity study in dogs; settings: beagle, dog, sc
dogs = experiment: as above
[8] = Metabolite profiling in monkey plasma after SC RE104; assay type: in vivo, cynomolgus monkey; settings: pooled plasma 0 to 12 hours post dose, SC 0.5 mg/kg RE104
Description: Blood samples were centrifuged to obtain plasma.

monkey hepatocytes = experiment: Hepatocyte intrinsic clearance, monkey; assay type: in vitro ADME
Description: as §1

healthy females = experiment: Phase 1 FIH study: modified Drug Effect Questionnaire (DEQ-High); assay type: in vivo, human; parameters: mean time to peak DEQ-High score: dose or concentration left out as unconfirmed
Experimental: The study was a double-blind, randomized, placebo-controlled Phase 1 single ascending dose study in up to 6 cohorts in healthy females. Eligibility was assessed during a screening period of up to 28 days prior to enrollment. For the treatment period, subjects were admitted to the clinical research unit (CRU) one day prior to the dosing (Day −1). On Day 1, all subjects will received the assigned SC dose of RE104 HCl or placebo in a fed state (after domiciling overnight and consuming a planned evening meal on Day −1 and morning meal on Day 1 while at the CRU). Subjects were allowed to select snacks from a planned menu from 4 hours following dosing. Subjects were discharged from the clinic on Day 2 (−24 hours post-dose) after all required study procedures were completed and if deemed medically fit. Subjects returned to the clinic on Day 10 (±2 days) for a follow up visit.
The Drug Effect Questionnaire (DEQ) Feel/High is widely used in studies of acute subjective response to a variety of substances, to assess two key aspects of subjective experience: (1) the strength of substance effects and (2) desirability of substance effects (Morean et al., 2013). The modified DEQ assesses the extent to which subjects (1) feel any substance effect(s) and (2) feel high. This version of the DEQ includes the following items: “Do you feel a drug effect right now?” (FEEL); “Are you high right now?” (HIGH). FIG. 2 sets out the modified DEQ that was used.
The modified DEQ was used as an 11-point numeric rating scale (0-10) administered by a qualified staff member. The subjects were asked to verbally respond to indicate how strongly they feel the drug effect and how high they feel on the scale of 0-10 after being administered the study drug (Kollltveit et al., 2020).

SMILES: CC(C)N(CCc1c[nH]c2cccc(OC(=O)CCCC(=O)O)c12)C(C)C [RE104]
- in vitro intrinsic clearance (CLint) (dog hepatocytes): 0.87 mL/hr/106 cells
- in vitro intrinsic clearance (CLint) (rabbit hepatocytes): 4.88 mL/hr/106 cells
- IC50 [1]: 740 nM
- Ki ([1]; read-out: binding Ki at the 5-HT2B receptor, CHO cells): 1800 nM
- MTD at 14 days ([2]; formulated in PBS): 75 mg/kg
- MTD at 14 days ([2]; formulated in WFI): 150 mg/kg
- completeness of conversion [3]: > 95%
- time of conversion to 4-OH-DiPT [3]: < 30 min
- EC50 [4]: > 30000 nM
- fm (fraction metabolized) [5]: 96.7%
- completeness of conversion [6]: > 95%
- time of conversion to 4-OH-DiPT [6]: < 30 min
- AUC(0-t) ([7]; plasma, 8 mg/kg): 4540 ng·h/mL
- Cmax ([7]; plasma, 8 mg/kg): 3300 ng/mL
- NOAEL at 14 days ([7]; both, in vivo): 8 mg/kg
- 1/10 of HED (dogs; dog): 0.44 mg/kg
- 1/10 of Human BSA dose (dogs; dog): 25.9 mg
- Human BSA dose (dogs; dog): 160 mg/m^2
- safety margin relative to proposed starting dose (dogs; dog HED vs 5 mg (zwitterion)): approximately 53 fold
- safety margin relative to proposed maximum dose (dogs; dog HED vs 48 mg (zwitterion)): ~5 fold
- HED (dogs; dog NOAEL, BSA conversion factors): 4.4 mg/kg
- Human BSA dose (dogs; dog, based on a BSA of 1.62 m^2): 259 mg
- HED of 8 mg/kg in the dog (dogs; expressed as zwitterion, 60 kg human, BSA conversion): approximately 267 mg
- share of the total peak area [8]: 71.1%
- in vitro intrinsic clearance (CLint) (monkey hepatocytes): 1.14 mL/hr/106 cells
- mean time to peak DEQ-High score (healthy females): 1.1 h
- Mean Experience Duration (healthy females; 33 mg): 3.7 h
- DEQ-High score, all participants (healthy females; 4 hours post dose): 51
